{
  "source": "paper PMC3652196",
  "about": "“Pharmacometrics of 3-Methoxypterostilbene: A Component of Traditional Chinese Medicinal Plants” (Evidence-based Complementary and Alternative Medicine : eCAM, 2013)",
  "key": {"[1]": {"assay": "Pharmacokinetic study in cannulated male Sprague-Dawley rats (serum and urine, HPLC)", "format": "in vivo, rat", "settings": "for CL renal: serum and urine; for AUC: n = 4 (abstract); for bioavailability: read-out: Bioavailability (F%); for AUC(0-inf): n = 4; for Cumulative amount excreted in urine: over 72 h; for CLhepatic: CLtotal − CLrenal", "from_the_text": "The HPLC system used was a Shimadzu HPLC (Kyoto, Japan), consisting of two LC-10A pumps, a SIL-10AF autoinjector, a SPD-M10A photodiode array detector, and a SCL-10A system controller. Data collection and integration were achieved using Shimadzu EZ Start Class VP (version 7.4) software. A Phenomenex Luna C18(2) (5 μm, 250 × 4.60 mm) column was used. The mobile phase consisted of acetonitrile and water (62 : 38 v/v) that were filtered and degassed under reduced pressure prior to use. Pinosylvin was used as the internal standard. […] Ultraviolet detection was carried out at 327 nm. […] The bias of the assay was <15% and was within 13% at the LOQ [9].\nMale Sprague-Dawley rats (≈200 g) were obtained from Simonsen Laboratories (Gilroy, CA, USA) and allowed food (Purina Rat Chow 5001) and water ad libitum upon arrival to the vivarium. Rats were housed in a temperature- and humidity-controlled facility with a 12 h light/dark cycle. Prior to the first day of the pharmacokinetic experiment, the rats were anesthetized using isoflurane (IsoFlo, Abbott Laboratories, Abbot Park, IL, USA) coupled with an oxygen regulator, and monitored by pedal reflex and respiration rate to maintain a surgical plane of anesthesia. The right jugular veins of the rats were cannulated with sterile silastic cannulas (Dow Corning, Midland, MI, USA). After cannulation, Intramedic PE-50 polyethylene tubing (Becton, Dickinson and Company, Franklin Lakes, NJ, USA) was exposed through the dorsal skin. The cannulas were flushed with nonheparinized 0.9% sterile saline solution. The animals were placed in metabolic cages to recover and fasted overnight.\nNo pharmacokinetics studies are reported in the literature for 3-methoxypterostilbene. Despite the paucity of 3-methoxypterostilbene pharmacokinetic studies in the literature, studies on other stilbenes have reported intravenous (IV) dosage ranges from 10 to 20 mg/kg and from 50 to 300 mg//kg for oral (PO) dosage. In keeping with the literature, doses of 10 mg/kg IV and 100 mg/kg PO were chosen.\nMale Sprague-Dawley rats (n = 8, average weight 200 g) were cannulated as described in the Animals and Surgical Procedures section. The animals were placed in metabolic cages following surgery where they were recovered overnight and fasted for 12 h prior to dosing. On the day of the experiment, the animals were dosed with 3-methoxypterostilbene in PEG 400 either IV (10 mg/kg, n = 4) or PO (100 mg/kg, n = 4). After dosing, a series of whole blood samples (0.5 mL) were collected at 0, 1, and 15 min, and 0.5, 1, 2, 4, 6, 12, 24, 48, and 72 h and 0, 0.25, 0.5, 1, 2, 4, 6, 12, 24, 48, and 72 h for IV and PO dosed rats, respectively. The cannulas were flushed with 0.5 mL 0.9% nonheparinized saline solution after each sample collection. The samples were collected into regular 2.0 mL Eppendorf tubes, centrifuged at 10,000 rpm for 5 min (Beckman Microfuge centrifuge, Beckman Coulter Inc., Fullerton, CA, USA), and the serum was collected. The serum was divided into two 0.1 mL fractions and placed into regular 2.0 mL Eppendorf tubes labeled as free and total serum samples. Samples were stored at −20°C until analyzed. Urine samples were also collected at 0, 2, 6, 12, 24, 48, and 72 h following 3-methoxypterostilbene administration. The volumes of urine produced by the rats were recorded, and two 0.1 mL aliquots were collected into separate prelabeled regular polypropylene microcentrifuge tubes and labeled as free and total urine samples and stored at −20°C until analyzed. At 72 h after dose, the animals were euthanized exsanguinated, and serum was collected.\nSerum and urine samples (0.1 mL) were run in duplicate with or without the addition of 20 μL of 500 U/mL β-glucuronidase and incubated in a shaking water bath at 37°C for 2 h to liberate any glucuronide conjugates. The proteins present in the serum samples were precipitated using 1 mL of −20°C acetonitrile. […]"}, "[2]": {"biological_target": "T1, α-amylase from porcine pancreas type VI-B (Sus scrofa, UniProt P00690)", "T1 construct": "α-amylase from porcine pancreas type VI-B; purchased Sigma-Aldrich; host or cells: porcine pancreas", "T1 sequence (P00690 16-511)": "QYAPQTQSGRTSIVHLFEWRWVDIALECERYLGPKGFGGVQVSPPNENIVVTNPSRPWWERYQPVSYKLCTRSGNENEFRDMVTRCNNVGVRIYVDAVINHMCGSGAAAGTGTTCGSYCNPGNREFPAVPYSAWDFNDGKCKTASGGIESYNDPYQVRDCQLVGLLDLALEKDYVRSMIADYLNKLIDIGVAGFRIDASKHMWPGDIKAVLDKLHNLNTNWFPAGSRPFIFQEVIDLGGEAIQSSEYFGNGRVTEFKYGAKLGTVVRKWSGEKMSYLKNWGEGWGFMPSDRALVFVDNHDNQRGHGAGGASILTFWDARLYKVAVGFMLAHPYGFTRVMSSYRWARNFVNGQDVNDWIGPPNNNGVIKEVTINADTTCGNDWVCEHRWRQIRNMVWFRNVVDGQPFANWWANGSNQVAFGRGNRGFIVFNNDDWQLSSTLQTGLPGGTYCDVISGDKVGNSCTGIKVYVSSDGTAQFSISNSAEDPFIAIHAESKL", "assay": "α-Amylase inhibition colorimetric assay (BPNPG7, amylase HR reagent)", "format": "biochemical"}, "[3]": {"tested_on": "crown-gall", "design": "method as in PMID 3598597", "settings": "cited from earlier work"}, "[4]": {"tested_on": "human peripheral blood mononuclear cells", "settings": "cited from earlier work"}, "[5]": {"settings": "computer model; cited from earlier work"}, "[6]": {"settings": "rat, intravenous 10 mg/kg, mean ± SEM"}, "[7]": {"settings": "rat, oral 100 mg/kg, mean ± SEM"}, "[8]": {"settings": "rat, oral 100 mg/kg, mean ± SEM, 100 mg/kg"}},
  "note": "“And” between values parts separate entries of the source, which are not always exact repeats. Equal entries are not always repeated. Where two headings read alike, the source gives them in different places.",
  "data": [
    {"smiles": "COc1cc(/C=C/c2ccc(O)c(OC)c2)cc(OC)c1", "note": "[3-methoxypterostilbene, trans-3,3′-5-trimethoxy-4′-hydro-xystilbene]", "values": [
      {"measurement": "CL renal", "setting": "[1]; male, Sprague-Dawley, rat, intravenous 10 mg/kg, mean ± SEM", "result": 12.7, "unit": "mL/min/kg"},
      {"measurement": "CL renal", "setting": "[1]; male, Sprague-Dawley, rat, oral 100 mg/kg, mean ± SEM", "result": 0.167, "unit": "mL/min/kg"},
      {"measurement": "AUC", "setting": "[1]; male, Sprague-Dawley, serum, rat, IV 10 mg/kg, mean ± SEM", "result": "48.1 ± 23.8", "unit": "µg·h/mL"},
      {"measurement": "concentration at 24 h", "setting": "[1]; male, Sprague-Dawley, serum, rat, IV 10 mg/kg, below detectable concentrations, read-out: Serum concentration after 24 hours", "result": "< 50", "unit": "ng/mL"},
      {"measurement": "AUC", "setting": "[1]; male, Sprague-Dawley, serum, rat, PO 100 mg/kg, mean ± SEM", "result": "229 ± 44.6", "unit": "µg·h/mL"},
      {"measurement": "MRT", "setting": "[1]; male, Sprague-Dawley, serum, rat, intravenous 10 mg/kg, mean ± SEM", "result": "26 ± 15", "unit": "h"},
      {"measurement": "clearance", "setting": "[1]; male, Sprague-Dawley, serum, rat, intravenous 10 mg/kg, mean ± SEM, read-out: CLtotal (converted)", "result": 797, "unit": "mL/min/kg"},
      {"measurement": "half-life", "setting": "[1]; male, Sprague-Dawley, serum, rat, intravenous 10 mg/kg, mean ± SEM, read-out: t 1/2 serum (converted)", "result": "18.9 ± 10.9", "unit": "h"},
      {"measurement": "bioavailability", "setting": "[1]; male, Sprague-Dawley, serum, rat, intravenous 10 mg/kg", "result": 100, "unit": "%"},
      {"measurement": "bioavailability", "setting": "[1]; male, Sprague-Dawley, serum, rat, oral 100 mg/kg vs 10 mg/kg IV, mean ± SEM", "result": "50.6 ± 10", "unit": "%"},
      {"measurement": "MRT", "setting": "[1]; male, Sprague-Dawley, serum, rat, oral 100 mg/kg, mean ± SEM", "result": "105 ± 13.1", "unit": "h"},
      {"measurement": "half-life", "setting": "[1]; male, Sprague-Dawley, serum, rat, oral 100 mg/kg, mean ± SEM, read-out: t 1/2 serum (converted)", "result": "73.3 ± 8.91", "unit": "h"},
      {"measurement": "half-life", "setting": "[1]; male, Sprague-Dawley, urine, rat, intravenous 10 mg/kg, mean ± SEM, read-out: t 1/2 urine (converted)", "result": "9.54 ± 1.51", "unit": "h"},
      {"measurement": "half-life", "setting": "[1]; male, Sprague-Dawley, urine, rat, oral 100 mg/kg, mean ± SEM, read-out: t 1/2 urine (converted)", "result": "20.6 ± 3.01", "unit": "h"},
      {"measurement": "Tmax", "setting": "[1]; male, Sprague-Dawley, rat serum, PO 100 mg/kg, average", "result": 0.5, "unit": "h"},
      {"measurement": "AUC(0-inf)", "setting": "[1]; male, Sprague-Dawley, rat serum, intravenous 10 mg/kg, mean ± SEM", "result": "48.1 ± 23.8", "unit": "µg·h/mL"},
      {"measurement": "AUC(0-inf)", "setting": "[1]; male, Sprague-Dawley, rat serum, oral 100 mg/kg, mean ± SEM", "result": "229 ± 44.6", "unit": "µg·h/mL"},
      {"measurement": "Cumulative amount excreted in urine", "setting": "[1]; rat, IV 10 mg/kg (~2 mg per rat)", "result": "~ 98 μg"},
      {"measurement": "Cumulative amount excreted in urine", "setting": "[1]; rat, PO 100 mg/kg (20 mg per rat)", "result": 341, "unit": "µg"},
      {"measurement": "f e (fraction excreted in urine unchanged)", "setting": "[1]; [6]", "result": "1.64 ± 0.950", "unit": "%"},
      {"measurement": "Vdβ", "setting": "[1]; rat, intravenous 10 mg/kg, mean ± SEM, 10 mg/kg", "result": "5.11 ± 0.38 L/kg and 5.11 ± 0.380 L/kg"},
      {"measurement": "CLhepatic", "setting": "[1]; [6]", "result": "785 ± 388", "unit": "mL/min/kg"},
      {"measurement": "CLtotal", "setting": "[1]; [7]", "result": "8 ± 1.33", "unit": "mL/min/kg"},
      {"measurement": "f e (fraction excreted in urine unchanged)", "setting": "[1]; [7]", "result": "1.24 ± 0.160", "unit": "%"},
      {"measurement": "Vdβ", "setting": "[1]; [8]", "result": "52.0 ± 10.0 L/kg and 52.0 ± 10.5 L/kg"},
      {"measurement": "CLhepatic", "setting": "[1]; [8]", "result": "8 ± 151.33 mL/min/kg and 8 ± 1.33 mL/min/kg"},
      {"measurement": "α-Amylase inhibition (in words)", "setting": "[2]; 0 to 200 μg/mL, n = 6", "result": "relatively weak inhibition of α-amylase"},
      {"measurement": "α-Amylase activity at the highest concentrations tested (in words)", "setting": "[2]; highest concentrations tested", "result": "appears to increase activity of α-amylase"},
      {"measurement": "Activity in crown-gall plant antitumor (potato disk) assay compared with piceatannol", "setting": "[3]", "result": "significantly greater activity"},
      {"measurement": "Inhibition of lipopolysaccharide-induced tissue factor expression", "setting": "[4]", "result": "as effective as resveratrol"},
      {"measurement": "Modeled antioxidant potency", "setting": "[5]", "result": "greater potency than resveratrol"}
    ]}
  ]
}
